US9211310B2, “Use of a Chinese medicine composition in preparing medicaments for treating secondary prevention of myocardial infarction” (TASLY PHARMACEUTICAL GROUP CO., LTD, priority 2010, dated 2015)

Test system: patients after acute myocardial infarction
Test: TCM symptom score, total and single (chest pain, chest tightness, short breath, fatigue, palpitation, spontaneous perspiration, pale complexion), same clinical trial
Type: in vivo, human
Set-up: total score of TCM symptom, Mean / total score of TCM symptom, Min / total score of TCM symptom, Max / total score of TCM symptom, Md / change of total score of TCM symptom, Mean / change of total score of TCM symptom, Max / change of total score of TCM symptom, Md: scale not given here
Conditions: FAS
Text: 3508 patients who were in accordance with the diagnostic standards of AMI for 28 days to 2 years and differentiated as Qi deficiency and blood stagnation syndrome by TCM were studied. 0.5 g Chinese medicine composition prepared by the method of EXAMPLE 1 (Coded as QSYQ) was administrated half an hour after meal, 3 times per day.
They included the overall survival time, angina pectoris score, TCM symptom score and life quality score, where angina pectoris score, TCM symptom score and life quality score were evaluated at randomization, in 1st, 3rd, 6th, 9th, 12th month after treatment and 18th month after follow-up.
The analysis method referred to the angina pectoris score.

[1] = 6 months after treatment-baseline
[2] = 9 months after treatment-baseline

Q: What does the source list for `CC(=O)Oc1ccccc1C(=O)O` [Control group, aspirine]?
A: change of fatigue −2, number of patients [1]: 108; change of fatigue −4, % of patients [1]: (0.70%); change of fatigue −4, number of patients [1]: 12; change of fatigue −6, % of patients [1]: (0.00%); change of fatigue −6, number of patients [1]: 0; change of pale complexion 0, number of patients [1]: 1322; change of pale complexion 0, percent of patients [1]: (77.40%); change of pale complexion 1, number of patients [1]: 319; change of pale complexion 1, percent of patients [1]: (18.68%); change of pale complexion −1, number of patients [1]: 67; change of pale complexion −1, percent of patients [1]: (3.92%); change of palpitation 0, number of patients [1]: 1034; change of palpitation 0, percent of patients [1]: (60.47%); change of palpitation 1, number of patients [1]: 490; change of palpitation 1, percent of patients [1]: (28.65%); change of palpitation 2, number of patients [1]: 56; change of palpitation 2, percent of patients [1]: (3.27%); change of palpitation 3, number of patients [1]: 9; change of palpitation 3, percent of patients [1]: (0.53%); change of palpitation −1, percent of patients [1]: (6.78%); change of palpitation −2, number of patients [1]: 5; change of palpitation −2, percent of patients [1]: (0.29%); change of palpitation −3, number of patients [1]: 0; change of palpitation −3, percent of patients [1]: (0.00%); change of short breath 0, % of patients [1]: (64.85%); change of short breath 0, number of patients [1]: 1109; change of short breath 2, % of patients [1]: (25.44%); change of short breath 2, number of patients [1]: 435; change of short breath 4, % of patients [1]: (2.98%); change of short breath 4, number of patients [1]: 51; change of short breath 6, % of patients [1]: (0.53%); change of short breath 6, number of patients [1]: 9; change of short breath −2, % of patients [1]: (5.96%); change of short breath −2, number of patients [1]: 102; change of short breath −4, % of patients [1]: (0.12%); change of short breath −4, number of patients [1]: 2; change of short breath −6, % of patients [1]: (0.12%); change of short breath −6, number of patients [1]: 2; change of spontaneous perspiration 0, number of patients [1]: 959; change of spontaneous perspiration 0, percent of patients [1]: (56.11%); change of spontaneous perspiration 1, number of patients [1]: 468; change of spontaneous perspiration 1, percent of patients [1]: (27.38%); change of spontaneous perspiration 2, number of patients [1]: 93; change of spontaneous perspiration 2, percent of patients [1]: (5.44%); change of spontaneous perspiration 3, number of patients [1]: 29; change of spontaneous perspiration 3, percent of patients [1]: (1.70%); change of spontaneous perspiration −1, number of patients [1]: 137; change of spontaneous perspiration −1, percent of patients [1]: (8.02%); change of spontaneous perspiration −2, number of patients [1]: 23; change of spontaneous perspiration −2, percent of patients [1]: (1.35%); change of spontaneous perspiration −3, number of patients [1]: 0; change of spontaneous perspiration −3, percent of patients [1]: (0.00%); change of total score of TCM symptom, Max [1]: 19.00; change of total score of TCM symptom, Md [1]: −3.00; change of total score of TCM symptom, Mean [1]: −3.76; change of total score of TCM symptom, Min [1]: −33.00; distribution of total score of TCM symptom: Medium, number of patients (9 months after treatment): 345; distribution of total score of TCM symptom: Medium, percentage of patients (9 months after treatment): (23.03%); distribution of total score of TCM symptom: Mild, number of patients (9 months after treatment): 1149; distribution of total score of TCM symptom: Mild, percentage of patients (9 months after treatment): (76.70%); distribution of total score of TCM symptom: Severe, number of patients (9 months after treatment): 4; distribution of total score of TCM symptom: Severe, percentage of patients (9 months after treatment): (0.27%); fatigue score 0, % of patients (9 months after treatment): (33.53%); fatigue score 0, number of patients (9 months after treatment): 576; fatigue score 2, % of patients (9 months after treatment): (60.24%); fatigue score 2, number of patients (9 months after treatment): 1035; fatigue score 4, % of patients (9 months after treatment): (5.12%); fatigue score 4, number of patients (9 months after treatment): 88; fatigue score 6, % of patients (9 months after treatment): (1.11%); fatigue score 6, number of patients (9 months after treatment): 19; pale complexion score 0, number of patients (9 months after treatment): 912; pale complexion score 0, percent of patients (9 months after treatment): (53.08%); pale complexion score 1, number of patients (9 months after treatment): 653; pale complexion score 1, percent of patients (9 months after treatment): (38.01%); pale complexion score 2, number of patients (9 months after treatment): 142; pale complexion score 2, percent of patients (9 months after treatment): (8.27%); pale complexion score 3, number of patients (9 months after treatment): 11; pale complexion score 3, percent of patients (9 months after treatment): (0.64%); palpitation score 0, number of patients (9 months after treatment): 581; palpitation score 0, percent of patients (9 months after treatment): (33.82%); palpitation score 2, number of patients (9 months after treatment): 929; palpitation score 2, percent of patients (9 months after treatment): (54.07%); palpitation score 4, number of patients (9 months after treatment): 179; palpitation score 4, percent of patients (9 months after treatment): (10.42%); palpitation score 6, number of patients (9 months after treatment): 29; palpitation score 6, percent of patients (9 months after treatment): (1.69%); short breath score 0, % of patients (9 months after treatment): (28.46%); short breath score 0, number of patients (9 months after treatment): 489; short breath score 3, % of patients (9 months after treatment): (57.86%); short breath score 3, number of patients (9 months after treatment): 994; short breath score 6, % of patients (9 months after treatment): (13.21%); short breath score 6, number of patients (9 months after treatment): 227; short breath score 9, % of patients (9 months after treatment): (0.47%); short breath score 9, number of patients (9 months after treatment): 8; spontaneous perspiration score 0, number of patients (9 months after treatment): 788; spontaneous perspiration score 0, percent of patients (9 months after treatment): (45.87%); spontaneous perspiration score 1, number of patients (9 months after treatment): 813; spontaneous perspiration score 1, percent of patients (9 months after treatment): (47.32%); spontaneous perspiration score 2, number of patients (9 months after treatment): 105; spontaneous perspiration score 2, percent of patients (9 months after treatment): (6.11%); spontaneous perspiration score 3, number of patients (9 months after treatment): 12; spontaneous perspiration score 3, percent of patients (9 months after treatment): (0.70%); total score of TCM symptom, Max (9 months after treatment): 37.00; total score of TCM symptom, Md (9 months after treatment): 8.00; total score of TCM symptom, Mean (9 months after treatment): 9.29; total score of TCM symptom, Min (9 months after treatment): 0.00; change of fatigue 0, % of patients [2]: (50.53%); change of fatigue 0, number of patients [2]: 864; change of fatigue 2, % of patients [2]: (33.45%); change of fatigue 2, number of patients [2]: 572; change of fatigue 4, % of patients [2]: (7.31%); change of fatigue 4, number of patients [2]: 125; change of fatigue 6, % of patients [2]: (1.17%); change of fatigue 6, number of patients [2]: 20; change of fatigue −2, % of patients [2]: (6.73%); change of fatigue −2, number of patients [2]: 115; change of fatigue −4, % of patients [2]: (0.76%); change of fatigue −4, number of patients [2]: 13; change of fatigue −6, % of patients [2]: (0.06%); change of fatigue −6, number of patients [2]: 1; change of pale complexion 0, number of patients [2]: 1284; change of pale complexion 0, percent of patients [2]: (75.18%); change of pale complexion 1, number of patients [2]: 365; change of pale complexion 1, percent of patients [2]: (21.37%)
